Source: patent EP0007648A1, “New acylureas with pharmaceutical activity, the process for their preparation, and pharmaceutical compositions which contain them” (Investigacion Tecnica Y Aplicada, S.A., priority 1978, dated 1980)

What was measured:
Platelet aggregation = assay: Anti platelet aggregation activity "ex vivo" (Born), ADP-induced aggregation after administration by gastric catheter; assay type: in vivo, rats, Sprage Dawley; details: for inhibition at 200 mg/kg: Dose 200 mg/kg p.o., rats, ADP-induced, 5 hours after administration; for anti platelet aggregation activity (in words): compared with acetilsalicilic acid given in a double dose
Source text: Platelet aggregation is induced by ADP (adenosindiphosphate) and measured in an aggregometer(Bryston) connected to a model R Omniscriber recorder.

in vivo = details: mouse, ip, NMRI male mice, suspended in Tween 80 at 1% plus CMC at 2% in physiological serum, read-out: LD 50 mg/kg. i.p. NMRI mouse
Experimental: The products were administered via intraperitoneal, suspended in Tween 80 at 1% plus CMC at 2% in physiological serum.
The reference standard used was phenolbutazone.

lactescence of the serum = assay: Hyperlipaemia activity: lactescence of the serum after oral olive oil; assay type: in vivo; details: for Activity; Hyper Lipaemia (%): Dose 200 mg/kg orally, suspended in 10 ml/kg of olive oil, serum lactescence 6 hours after administration; for hyperlipaemia activity (in words): against clofibrate
Experimental: For the determination of the hyperlipaemia activity the products were administered orally suspended in 10 ml/kg of olive oil evaluating the lactescence of the serum 6 hours after administration.

[1] = system: hypercholesterolaemia induced by the administration of Triton WR 1339; assay: Hypercholesterolaemia induced by Triton WR 1339 (Garattini et al.); assay type: in vivo; details: among the products examined
Source text: To determine the hypercholesterolaemia activity tests have been conducted with hypercholesterolaemia induced by the administration of Triton WR 1339 in accordance with S. Garattini C.Morpurgo and Passerini (Experiment 12 (1956)347). The results obtained using clofibrate (ethyl […] of p-chlorophenoxyisobutiric acid), as a reference standard are shown in Table II below.

[2] = Rattus norvegicus, Platelet, po

Structure (SMILES) | inhibition at 200 mg/kg (Platelet aggregation; [2]) [%] | LD50 (in vivo) [mg/kg] | Activity; Hyper Lipaemia (%) (lactescence of the serum) | inhibition at 400 mg/kg (Platelet aggregation; Rattus norvegicus, Platelet, po, 5 h, read-out: Anti platelet aggregation p.o. % inhibition (5 hours)) [%] | hyperlipaemia activity (in words) (lactescence of the serum) | anti platelet aggregation activity (in words) (Platelet aggregation) | hypercholesterolaemia activity (in words) [1]
COc1ccccc1C(=O)NC(=O)NCN1CCOCC1 [ITA-418, N-(2-methoxybenzoil)-N'-morpholinomethylurea] | 68 | 1100 | – | – | – | – | –
COc1ccc2c(c1)c(CC(=O)NC(=O)NCN1CCOCC1)c(C)n2C(=O)c1ccc(Cl)cc1 [ITA-377, N-[1-(p-chiorobenzoil) -2-methyl-5-methoxyindol-3-il]acetyl-N' -morpholinomethylurea] | 5.3 | > 3000 | 12,6% | – | – | – | –
CC(C)Cc1ccc(C(C)C(=O)NC(=O)NCN2CCOCC2)cc1 (stereo not shown) [ITA-376, N-2-(p-isobutylphenyl) propionyl-N'-morpholinomethylurea] | 12.7 | 1800 | 1,3% | – | – | – | –
O=C(NCN1CCOCC1)NC(=O)C(Oc1ccc(Cl)cc1)Oc1ccc(Cl)cc1 [ITA-373, N-[bis(p-chiorophenoxy)] acetyl -N'-morpholinomethylurea] | 11.9 | 1700 | – | – | – | – | –
O=C(COc1ccc(Cl)cc1)NC(=O)NCN1CCOCC1 [ITA-372, N-(p-chlorophenoxy)acetyl N' -morpholinomethylurea] | 8.1 | 300 | – | – | – | – | –
CC(=O)Oc1ccccc1C(=O)O [Acelylsalicilic acid, reference compound] | – | – | – | 86.3 | – | – | –
CC(C)(Oc1ccc(C(=O)c2ccc(Cl)cc2)cc1)C(=O)NC(=O)NCN1CCOCC1 [ITA-375, N-2-[p-(p'-chlorobenzoil)phenoxy]-2-methylpropionyl-N'-morpholine methylurea] | 68.5 | 950 | 41,1% | – | stand out in this activity | stand out in their anti platelet aggregation activity | stands out for its efficacity
O=C(NCN1CCOCC1)NC(=O)c1cccnc1 [ITA-378, N-nicotinoil-N'-morpholino methylurea] | 81.9 | 1700 | 54,7% | – | stand out in this activity | stand out in their anti platelet aggregation activity | –
CCOC(=O)C(C)(C)Oc1ccc(Cl)cc1 [Clofibrate, ethyl esther of p-chlorophenoxyisobutiric acid, reference compound] | – | – | 22,8% | – | – | – | –
CC(C)(Oc1ccc(C(=O)c2ccc(Cl)cc2)cc1)C(=O)NC(N)=O [ITA-374, N-2-[p-(p' -chlorobenzoil)phenoxy]-2-methylpropionylurea] | 16.1 | > 3000 | 28,2% | – | – | – | –
